Data as given in the supplement of paper PMC10627819.
≈ marks a conversion by molar mass, not a printed value.

Tests used:
[1] = system: S. pneumoniae D39V
[2] = system: S. aureus DSM 20231
[3] = system: S. aureus Newman
[4] = system: S. aureus DSM 20231; test: fitness (endpoint OD595 vs no drug) (fraction); higher = more growth
Summary of the method: (§1)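 Fitness is computed from the optical density at which cultures reach stationary phase, divided by the robust mean of no-drug control wells. Any value above 1 is set to 1. Cultures started at OD595 0.01 in 384-well plates with TSB, LB Lennox or CY at 37 °C, and OD595 was read every 30 min for 14 h against a first-reading background.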

[5] = system: B. subtilis 168; test: as above
Summary of the method: as §1

[6] = system: S. aureus Newman; test: as above
Summary of the method: as §1

[7] = system: S. pneumoniae D39V; test: Bliss interaction score (quartile over a dose matrix) (fitness difference); higher = more antagonism (negative = synergy)
Summary of the method: (§2)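 The Bliss score takes observed fitness and subtracts the expected fitness, calculated as a product of single-drug fitness values. Those single-drug values were inferred from the combination data. Fitness is OD595 at entry into stationary phase divided by the plate's robust no-drug mean, capped at 1, and the score is summarised by quartiles across technical, biological and donor/recipient replicates.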

[8] = system: S. aureus DSM 20231; test: as above
Summary of the method: as §2

[9] = system: B. subtilis 168; test: as above
Summary of the method: as §2

[10] = system: S. aureus Newman; test: as above
Summary of the method: as §2

[11] = system: S. pneumoniae D39V; test: fitness (endpoint OD595 vs no drug) (fraction); higher = more growth
Summary of the method: as §1
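For Bliss interaction score (quartile over a dose matrix) in this document: first quartile when negative (synergy) and third quartile when positive (antagonism).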

O=C(O)c1cn(C2CC2)c2cc(N3CCNCC3)c(F)cc2c1=O [Ciprofloxacin]
Conditions | MIC [µg/mL]
[1] | 1 (≈ 3.02 µM)
[2] | 0.312 (≈ 0.942 µM)
[3] | 0.156 (≈ 0.471 µM)

fitness
Conditions | 0.0098 µg/mL | 0.0195 µg/mL | 0.0375 µg/mL | 0.039 µg/mL | 0.075 µg/mL | 0.078 µg/mL | 0.15 µg/mL | 0.156 µg/mL | 0.312 µg/mL
[4] | – | – | 1 | – | 0.978 | 0.899 | 0.77 | 0.754 | 0.456
[5] | 0.871 | 0.777 | – | 0.135 | – | – | – | – | –
[6] | – | – | 0.801 | – | 0.597 | 0.708 | 0.0387 | 0.267 | 0.0879

COc1ccc(C[C@H](N)C(=O)N[C@H]2[C@@H](O)[C@H](n3cnc4c(N(C)C)ncnc43)O[C@@H]2CO)cc1 [Puromycin] + CC1=C\[C@@H](O)CC(=O)Cc2nc(co2)C(=O)N2CCC=C2C(=O)O[C@H](C(C)C)[C@H](C)/C=C/C(=O)NC\C=C\1 [Virginiamycin M1]
Conditions | Bliss interaction score
[7] | 0.0811
[8] | 0.0808
[9] | 0.0535
[10] | 0.0481

one replicate
Conditions | fitness
[4], first compound 0.39 µg/mL, partner 0.5 µg/mL | 0.858
[4], first compound 0.39 µg/mL, partner 1 µg/mL | 0.798
[4], first compound 0.78 µg/mL, partner 0.5 µg/mL | 0.924
[4], first compound 0.78 µg/mL, partner 1 µg/mL | 0.917
[4], first compound 1.56 µg/mL, partner 0.5 µg/mL | 0.939
[4], first compound 1.56 µg/mL, partner 1 µg/mL | 0.941
[4], first compound 3.12 µg/mL, partner 0.0625 µg/mL | 0.99
[4], first compound 3.12 µg/mL, partner 0.125 µg/mL | 0.996
[4], first compound 3.12 µg/mL, partner 0.25 µg/mL | 0.931
[4], first compound 6.24 µg/mL, partner 0.0625 µg/mL | 0.67
[4], first compound 6.24 µg/mL, partner 0.125 µg/mL | 0.706
[4], first compound 6.24 µg/mL, partner 0.25 µg/mL | 0.851
[6], first compound 0.39 µg/mL, partner 0.5 µg/mL | 0.877
[6], first compound 0.39 µg/mL, partner 1 µg/mL | ≥ 1
[6], first compound 0.39 µg/mL, partner 2 µg/mL | 0.907
[6], first compound 0.78 µg/mL, partner 0.5 µg/mL | 0.948
[6], first compound 0.78 µg/mL, partner 1 µg/mL | 0.988
[6], first compound 0.78 µg/mL, partner 2 µg/mL | 0.87
[6], first compound 1.56 µg/mL, partner 0.5 µg/mL | 0.942
[6], first compound 1.56 µg/mL, partner 1 µg/mL | ≥ 1
[6], first compound 1.56 µg/mL, partner 2 µg/mL | 0.919
[11], first compound 1 µg/mL, partner 0.15 µg/mL | ≥ 1
[11], first compound 1 µg/mL, partner 0.3 µg/mL | ≥ 1
[11], first compound 2 µg/mL, partner 0.15 µg/mL | ≥ 1
[11], first compound 2 µg/mL, partner 0.3 µg/mL | 0.983
[11], first compound 4 µg/mL, partner 0.15 µg/mL | 0.981
[11], first compound 4 µg/mL, partner 0.3 µg/mL | 0.948

Conditions | fitness
[4], first compound 0.39 µg/mL, partner 0.0625 µg/mL | 0.981
[4], first compound 0.39 µg/mL, partner 0.125 µg/mL | ≥ 1
[4], first compound 0.39 µg/mL, partner 0.25 µg/mL | 0.926
[4], first compound 0.78 µg/mL, partner 0.125 µg/mL | 0.807
[4], first compound 0.78 µg/mL, partner 0.25 µg/mL | 0.978
[4], first compound 1.56 µg/mL, partner 0.0625 µg/mL | 0.998
[4], first compound 1.56 µg/mL, partner 0.125 µg/mL | ≥ 1
[4], first compound 1.56 µg/mL, partner 0.25 µg/mL | 0.98
[5], first compound 0.39 µg/mL, partner 0.0625 µg/mL | 0.975
[5], first compound 0.39 µg/mL, partner 0.125 µg/mL | 0.947
[5], first compound 0.39 µg/mL, partner 0.25 µg/mL | ≥ 1
[5], first compound 0.78 µg/mL, partner 0.0625 µg/mL | 0.94
[5], first compound 0.78 µg/mL, partner 0.125 µg/mL | 0.908
[5], first compound 0.78 µg/mL, partner 0.25 µg/mL | 0.963
[5], first compound 1.56 µg/mL, partner 0.0625 µg/mL | 0.948
[5], first compound 1.56 µg/mL, partner 0.125 µg/mL | 0.884
[5], first compound 1.56 µg/mL, partner 0.25 µg/mL | 0.87
[6], first compound 0.39 µg/mL, partner 0.0625 µg/mL | 0.988
[6], first compound 0.39 µg/mL, partner 0.125 µg/mL | ≥ 1
[6], first compound 0.39 µg/mL, partner 0.25 µg/mL | 0.999
[6], first compound 0.78 µg/mL, partner 0.0625 µg/mL | 0.986
[6], first compound 0.78 µg/mL, partner 0.125 µg/mL | ≥ 1
[6], first compound 0.78 µg/mL, partner 0.25 µg/mL | 0.984
[6], first compound 1.56 µg/mL, partner 0.0625 µg/mL | 0.998
[6], first compound 1.56 µg/mL, partner 0.125 µg/mL | 0.977
[6], first compound 1.56 µg/mL, partner 0.25 µg/mL | 0.986
[11], first compound 1 µg/mL, partner 0.5 µg/mL | 0.976
[11], first compound 1 µg/mL, partner 1 µg/mL | 0.952
[11], first compound 1 µg/mL, partner 2 µg/mL | 0.908
[11], first compound 2 µg/mL, partner 0.5 µg/mL | 0.986
[11], first compound 2 µg/mL, partner 1 µg/mL | 0.969
[11], first compound 2 µg/mL, partner 2 µg/mL | 0.886
[11], first compound 4 µg/mL, partner 0.5 µg/mL | 0.847
[11], first compound 4 µg/mL, partner 1 µg/mL | 0.783
[11], first compound 4 µg/mL, partner 2 µg/mL | 0.804
